# Data reported in patent publication US20250275982A1, “SOLID FORM FORMULATION COMPRISING CHROMIUM OR COPPER OR A VITAMIN, COMPOSITIONS AND USES THEREOF” (ALESCO S.R.L., priority 2019, published 2025).
# Structures can show the parent of a compound that is named as a salt.
# Columns and labels:
# Type in all cases: cell-based
# [1] = tested on: GLUT-4; assay: GLUT-4 study: ELISA of GLUT-4 in cell homogenate of insulin-treated differentiated mouse myoblasts
# From the text: (§1) In vitro efficacy study: evaluation of the modulation of the carbohydrate metabolism by two compositions comprising a chromium salt (Composition 1 and Composition 2) in a culture of differentiated mouse myoblasts.
# (§2) The following endpoints were considered:—glucose uptake, by means of intracellular glucose assay; • expression of GLUT-4, insulin-sensitive glucose transporter; and • ATP content, the primary source of energy for cellular biochemical reactions.
# (§3) The experimental model used in this study is differentiated mouse myoblasts (ATCC Number: CRL-1772, lot 70013341), cultured in Dulbecco's Modified Eagle's Medium (DMEM) supplemented with 10% foetal bovine serum at 37° C., 5% CO2. The formation of myotubes is induced by adding horse serum.
# (§4) The experimental protocol provided for: • Untreated control cells (CTR-); • Insulin-treated control cells (100 nM); • Insulin-treated cells and the Compounds in question (Composition 1 and Composition 2); • Insulin-treated cells and the reference Compound (metformin).
# (§5) Three concentrations of each composition under study (Composition 1 and 2) were tested: 500 μM, 100 µM and 50 μM (Cr). The preparation of the samples involved the use of DMSO as solvent.
# (§6) The reference Compound (metformin hydrochloride) was tested at 2000 μm. • The treatment of the cells with Composition 1 and 2 and reference Composition extended for 24 hours.
# (§7) The cultures were then treated with insulin (100 nM) for 4 hours. A source of glucose was added to the media in the glucose uptake evaluation study. The treatments were conducted in quadruplicate.
# (§8) At the end of the treatments the cells were lysed to obtain a cell homogenate on which it was assayed: • glucose, by means of colorimetric assay; • ATP, by means of colorimetric assay; • GLUT-4, by means of ELISA technique.
# (§9) Commercially available colorimetric and ELISA kits were used.
# ELISA kits exploit the competitive binding of an antigen (in this case GLUT-4) with its primary antibody. The immune complex (antigen-antibody) is in turn recognised by a secondary antibody conjugated to a peroxidase. The addition of the peroxidase substrate produces a colorimetric reaction with intensity proportional to the amount of immune complexes present and thus to the amount of bound target molecule. Quantitative determination exploits a calibration curve constructed with known and increasing concentrations of standard marker.
# (§10) The data obtained in the experimental groups treated with the samples subject of the study were subjected to statistical analysis and compared with each other and with insulin according to the t-test. Variations are considered significant for p<0.05.
# (§11) GLUT-4 assay: the results (Table 3 and FIG. 2) are expressed as mean content±st.dev. (expressed in μg/L) and as a mean % variation with respect to treatment with insulin. Statistically significant data with respect to insulin are reported with *, while ^∘ indicates differences between tested compounds.
# [2] = tested on: differentiated mouse myoblasts; assay: Glucose uptake study: intracellular glucose colorimetric assay in insulin-treated differentiated mouse myoblasts
# From the text: as §1, §2, §3, §4, §5, §6, §7, §8, §9
# (§12) The colorimetric kits use a specific probe, a mixture of reaction enzymes and a curve with known amounts of each standard.
# as §10
# as §11, with “Glucose” for “GLUT-4”, “2” for “3”, “1)” for “2)”, “nanomoles)” for “μg/L)”
# [3] = tested on: differentiated mouse myoblasts; assay: ATP study: colorimetric assay of ATP content in insulin-treated differentiated mouse myoblasts
# From the text: as §1, §2, §3, §4, §5, §6, §7, §8, §9, §12, §10
# as §11, with “ATP” for “GLUT-4”, “4” for “3”, “3)” for “2)”, “nanomoles)” for “μg/L)”
# [4] = 2000 um for 24 hours + insulin 100 nM for 4 hours
# [5] = insulin 100 nM for 4 hours, insulin-treated control cells
# [6] = 50 μM (Cr) for 24 hours + insulin 100 nM for 4 hours
# [7] = 100 μM (Cr) for 24 hours + insulin 100 nM for 4 hours
# [8] = 500 μM (Cr) for 24 hours + insulin 100 nM for 4 hours
# [9] = at 500 µM and 100 µM, significance vs. insulin p<0.05
molecule,measurement,setting,value
"CN(C)C(=N)N=C(N)N [Metformin, metformin hydrochloride]",% var. vs. insulin (GLUT-4 assay),[1]; 2000 um + insulin,28.0%
same,"mean value (GLUT-4 assay, mean content)",[1]; [4],6.71 µg/L
same,% var. vs. insulin (glucose assay),[2]; 2000 um + insulin,24.6%
same,"mean value (glucose assay, mean content)",[2]; [4],11.73 nmol
same,% var. vs. insulin (ATP assay),[3]; 2000 um + insulin,17.6%
same,"mean value (ATP assay, mean content)",[3]; [4],4.61 nmol
Insulin: insulin (100 nM) used to treat control cells and all treated cultures,"mean value (GLUT-4 assay, mean content)",[1]; [5],5.24 µg/L
same,"mean value (glucose assay, mean content)",[2]; [5],9.42 nmol
same,"mean value (ATP assay, mean content)",[3]; [5],3.92 nmol
chromium (III) picolinate [CR picolinate],"mean value (GLUT-4 assay, mean content)",[1]; [6],5.60 µg/L
same,% var. vs. insulin (GLUT-4 assay),[1]; 50 μM + insulin,6.8%
same,"mean value (GLUT-4 assay, mean content)",[1]; [7],6.35 µg/L
same,% var. vs. insulin (GLUT-4 assay),[1]; 100 μM + insulin,21.1%
same,"mean value (GLUT-4 assay, mean content)",[1]; [8],6.50 µg/L
same,% var. vs. insulin (GLUT-4 assay),[1]; 500 μM + insulin,24.0%
same,"GLUT-4 levels, behaviour over the three concentrations, in words","[1]; 500, 100 and 50 μM",showed a dose-dependent behaviour
same,"levels of GLUT-4 carrier, result in words",[1]; [9],effective in significantly increasing the levels of GLUT-4 carrier
same,"mean value (glucose assay, mean content)",[2]; [6],10.24 nmol
same,% var. vs. insulin (glucose assay),[2]; 50 μM + insulin,8.7%
same,"mean value (glucose assay, mean content)",[2]; [7],11.08 nmol
same,% var. vs. insulin (glucose assay),[2]; 100 μM + insulin,17.6%
same,"mean value (glucose assay, mean content)",[2]; [8],11.24 nmol
same,% var. vs. insulin (glucose assay),[2]; 500 μM + insulin,19.3%
same,"glucose uptake, behaviour over the three concentrations, in words","[2]; 500, 100 and 50 μM",showed a dose-dependent behaviour
same,"insulin-dependent glucose uptake, result in words",[2]; [9],effective in significantly increasing insulin-dependent glucose uptake
same,"mean value (ATP assay, mean content)",[3]; [6],4.09 nmol
same,% var. vs. insulin (ATP assay),[3]; 50 μM + insulin,4.3%
same,"mean value (ATP assay, mean content)",[3]; [7],4.78 nmol
same,% var. vs. insulin (ATP assay),[3]; 100 μM + insulin,22.1%
same,"mean value (ATP assay, mean content)",[3]; [8],5.35 nmol
same,% var. vs. insulin (ATP assay),[3]; 500 μM + insulin,36.5%
same,"intracellular ATP, behaviour over the three concentrations, in words","[3]; 500, 100 and 50 μM",showed a dose-dependent behaviour
same,"intracellular ATP, statistical comparison between the compositions, in words",[3]; at 50 μM,does not show performance differences
same,"levels of intracellular ATP, result in words",[3]; [9],effective in significantly increasing the levels of intracellular ATP
